In patent US20140221485A1, “LIPOPHILIC DOPAMINE DERIVATIVES AND THEIR USE” (NOVALIQ GMBH, priority 2011, published 2014):
Entries after “also recorded” stand apart in the source; their conditions may differ.

Legend:
[1] = test system: MANF; assay: UPR target gene transcription by qPCR in endothelial cells; format: cell-based; settings: 100 μM, 24 h
Protocol: (§1) Endothelial cells were stimulated for 24 h with 100 μM of NOD, NOT, BB, BBNB or BBNO (see Table 1 for compound structures). RNA was isolated from each sample and transcribed into cDNA. Expression of selected UPR target genes was assessed by qPCR.

[2] = test system: HYOU1; assay: as above; format: cell-based; settings: 100 μM, 24 h
Protocol: as §1

[3] = test system: DDIT3; assay: as above; format: cell-based; settings: 100 μM, 24 h
Protocol: as §1

[4] = test system: HSPA5; assay: as above; format: cell-based; settings: 100 μM, 24 h
Protocol: as §1

[5] = test system: Lewis rats; assay: Effect on renal function (serum creatinine) in ARF rat model; format: in vivo; settings: continuous infusion over 5 days, from day 1 vs saline and day 3 vs dopamine, P<0.05
Protocol: Kidneys of Lewis rats (n=8) were clamped for 45 min to induce acute renal failure (ARF). Afterwards the rats were treated with continuous infusions (10 μL/h over 5 days) of either saline, dopamine or N-octanoyl dopamine (NOD), using an osmotic minipump and the same concentrations as in Example 3. The rats' renal function, as measured by the serum creatinine concentration, was monitored for 5 days.

[6] = biological target: T1, protein disulfide isomerase (PDI) (Homo sapiens, UniProt P07237); assay: ProteoStat PDI assay kit, fluorescence-based; format: biochemical; settings: serial dilutions, excitation about 500 nm, emission about 603 nm
T1 construct: purchased
T1 sequence (P07237 18-508): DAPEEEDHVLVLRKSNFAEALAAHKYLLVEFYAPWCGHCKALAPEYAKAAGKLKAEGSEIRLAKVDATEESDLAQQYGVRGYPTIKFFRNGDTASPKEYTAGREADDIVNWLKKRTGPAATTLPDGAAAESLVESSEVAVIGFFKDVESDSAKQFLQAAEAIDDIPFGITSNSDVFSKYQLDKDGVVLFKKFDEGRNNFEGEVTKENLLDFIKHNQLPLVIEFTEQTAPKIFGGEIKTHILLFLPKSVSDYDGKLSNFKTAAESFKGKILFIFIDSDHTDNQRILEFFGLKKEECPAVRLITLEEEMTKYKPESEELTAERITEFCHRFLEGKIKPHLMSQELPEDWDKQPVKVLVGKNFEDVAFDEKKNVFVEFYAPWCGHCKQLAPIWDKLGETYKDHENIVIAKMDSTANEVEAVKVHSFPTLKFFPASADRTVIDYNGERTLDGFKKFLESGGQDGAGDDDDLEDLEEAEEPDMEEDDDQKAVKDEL
Protocol: Modulation of PDI activity by NOD was examined by using a fluorescence-based commercially available ProteoStat™ PDI assay kit and according to the kit protocol. The protocol was applied to serial dilutions of NOD, which were measured for inhibition of PDI activity using a fluorescent microplate reader at an excitation setting of about 500 nm and an emission filter of about 603 nm.

[7] = test system: TNF-α; assay: TNF-α activity in renal tissue measured by PCR; format: in vivo, rat; settings: ARF rats, P<0.01
[8] = test system: HO1 (heme oxygenase-1); assay: HO1 expression in HUVEC, immunoblot; format: cell-based, human; settings: TNF-α 24 h, 100 μM compound
Protocol: (§2) The anti-inflammatory effects of A-NOD and NOD were examined, specifically as to their impact on TNF-α (tumour necrosis factor alpha) mediated VCAM-1 (vascular cell adhesion molecule 1) expression. Human umbilical vein endothelial cells (HUVEC) were cultured until confluence. Hereafter the cells were stimulated for 24 h with TNF-α in the presence or absence of 100 μM NOD or A-NOD. Cells that were not stimulated (M) served as control. Cells were harvested and lysed in Laemli buffer. Hereafter, 20 μL of the lysates were boiled and subjected to SDS-PAGE. The resulting gel was blotted on PVF membranes and the membrane was subsequently incubated overnight with TBS/Tween/5% dry milk powder to block unspecific binding. The upper part of the membrane was probed with an anti-VCAM-1 antibody and the lower part with an anti-HO1 antibody (heme oxygenase-1). After thoroughly washing the membrane was incubated with appropriate HRP conjugates, bands were visualized using chemoluminescence (shown in FIG. 7).

[9] = biological target: TRPV-1-receptors (Homo sapiens, UniProt Q8NER1); settings: Greffrath et al. 2011; results in desensitization of the receptor; cited from earlier work
Sequence of TRPV-1-receptors (Q8NER1 whole entry): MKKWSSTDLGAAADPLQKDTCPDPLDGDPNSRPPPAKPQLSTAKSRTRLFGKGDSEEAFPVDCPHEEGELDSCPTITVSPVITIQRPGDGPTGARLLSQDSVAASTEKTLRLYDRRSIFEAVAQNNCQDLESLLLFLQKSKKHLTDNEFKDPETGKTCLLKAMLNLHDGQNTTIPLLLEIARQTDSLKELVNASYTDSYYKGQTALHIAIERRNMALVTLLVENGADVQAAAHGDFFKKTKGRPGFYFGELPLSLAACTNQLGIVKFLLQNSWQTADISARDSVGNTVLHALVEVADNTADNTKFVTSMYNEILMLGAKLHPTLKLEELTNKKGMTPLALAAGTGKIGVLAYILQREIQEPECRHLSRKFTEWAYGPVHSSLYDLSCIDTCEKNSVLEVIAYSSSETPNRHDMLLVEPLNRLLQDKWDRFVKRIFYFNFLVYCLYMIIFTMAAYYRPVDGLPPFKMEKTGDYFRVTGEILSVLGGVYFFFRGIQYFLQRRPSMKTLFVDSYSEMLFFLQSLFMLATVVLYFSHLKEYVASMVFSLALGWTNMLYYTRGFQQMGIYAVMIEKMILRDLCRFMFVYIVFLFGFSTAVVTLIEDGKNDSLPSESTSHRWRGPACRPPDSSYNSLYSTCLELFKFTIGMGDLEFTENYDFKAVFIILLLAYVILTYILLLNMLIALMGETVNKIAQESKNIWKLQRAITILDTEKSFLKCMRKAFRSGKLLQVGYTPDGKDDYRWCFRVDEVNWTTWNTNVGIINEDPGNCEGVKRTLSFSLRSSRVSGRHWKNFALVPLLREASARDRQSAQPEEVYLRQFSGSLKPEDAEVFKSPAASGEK

[10] = test system: UPR target genes; assay: UPR gene transcription of endothelial cells under normoxic and hypoxic conditions (qPCR); format: cell-based; settings: 100 μM, 24 h
Protocol: Endothelial cells were cultured for 24 h under normoxic conditions in the presence or absence of 100 μM of NOD or NOT. Cells that were cultured in the absence of either compounds (medium) served as a control. In addition, the cells were cultured under hypoxic conditions for 24 h in the presence or absence of 100 μM NOD or NOT. RNA was isolated and transcribed into cDNA. The expression of a selected set of UPR target genes was assessed by qPCR.

[11] = test system: Human umbilical vein endothelial cells (HUVEC); assay: Hypothermic preservation of HUVEC, LDH release; format: cell-based; settings: 100 μM for 1 h, then 24 hrs on ice in UW solution
Protocol: The hypothermic preservation properties of NOD, A-NOD and N-pivaloyl dopamine (also referred to as NPD, or N-[2-(3,4-dihydroxyphenyl)ethyl]tert-butylamide) were examined. Human umbilical vein endothelial cells (HUVEC) were seeded in 24 well plates and grown until confluence. Hereafter, HUVEC were stimulated for 1 h with 100 μM of NOD, A-NOD or NPD. Cells that were not treated (Md) served as control. The medium was aspirated and the cells were stored for 24 hrs on ice in University of Wisconsin (UW) solution. Cell damage was assessed by measuring lactate dehydrogenase (LDH) release, using a commercially available LDH release assay (Roche). To this end, 100 μl of supernatant was added to 100 μl of assay reaction mixture. The plates were incubated for 30 minutes and the absorption (OD490) was assessed. All experimental conditions were performed in triplicate.
An increase in LDH activity correlates with the amount of dead or damaged cells.

[12] = test system: Lewis rats; assay: Renal histology after ARF (ED1-cell infiltration, necrotic tubulus cells); format: in vivo, rat; settings: in comparison with saline- and dopamine-treated rats
Excerpt: The kidneys of the Lewis rats of examples 3 and 4 were harvested. The renal tissue was examined with regard to the infiltration by inflammatory ED1-cells and signs of necrotic tubulus cells.

[13] = test system: Lewis rats; assay: Effect on body weight in ARF rat model; format: in vivo; settings: kidneys clamped 45 min, continuous infusion 10 μL/h over 5 days, 40 μmmol/mL
Protocol: Kidneys of Lewis rats (n=8) were clamped for 45 min to induce acute renal failure (ARF). Afterwards the rats were treated with continuous infusions (10 μL/h over 5 days) of either saline, dopamine or N-octanoyl dopamine (NOD), using an osmotic minipump. The concentration of dopamine and NOD was 40 μmmol/mL. The rats' body weight was monitored for 5 days.

[14] = test system: ER stress response element (ESRE); assay: ESRE luciferase reporter in transfected endothelial cells; format: cell-based; settings: stimulated 24 hours
Protocol: The induction of UPR is mediated by the binding of transcription factors to an ER stress response element (ESRE) featured in the UPR (unfolded protein response) target genes. Endothelial cells were transfected by means of lentiviral transfection using a reporter luciferase construct under the control of ESRE responsive elements. After two days, the transfected cells were stimulated for 24 hours with NOD or dopamine or NPD (N-pivaloyl dopamine, also referred to as N-[2-(3,4-dihydroxyphenyl)ethyl]tert-butylamide), or N-[2-(4-hydroxyphenyl)ethyl]octanamide (referred to as NOT), or medium (control). Chemiluminescence activity of the luciferase was then measured.

[15] = test system: VCAM-1; assay: TNF-α mediated VCAM-1 expression in HUVEC, immunoblot; format: cell-based, human; settings: TNF-α 24 h, 100 μM compound
Protocol: as §2

SMILES	Relative fold-increase of transcription compared to untreated endothelial cells, 2ΔΔ Ct, MANF [1] [fold]	Relative fold-increase of transcription compared to untreated endothelial cells, 2ΔΔ Ct, HYOU1 [2] [fold]	Relative fold-increase of transcription compared to untreated endothelial cells, 2ΔΔ Ct, DDIT3 [3] [fold]	Relative fold-increase of transcription compared to untreated endothelial cells, 2ΔΔ Ct, HSPA5 [4] [fold]	LDH activity (LDH release, OD490) compared to untreated cell control (Md) [11]	other results
CCCCCCCC(=O)NCCc1ccc(O)cc1 [NOT, N-[2-(4-hydroxyphenyl)ethyl]octanamide]	1.08	1.26	1.12	0.94	–	–
CCCCCCCC(=O)NCCc1ccc(O)c(O)c1 [NOD, N-octanoyl dopamine]	4.53	5.17	37.80	11.40	significantly lower	renal function as measured by serum creatinine concentration [5]: significantly improved renal function; inhibition of PDI activity [6]: inhibits PDI in a dose-dependent manner; TNF-α activity in the renal tissue as measured by PCR [7]: significantly reduced; anti-HO1 antibody binding [8]: showed anti-HO1 antibody binding; action on TRPV-1-receptors [9]: agonist; UPR gene transcription under hypoxic conditions ([10]; hypoxic): significantly higher levels of transcription; UPR gene transcription under normoxic conditions ([10]; normoxic): only NOD induced UPR gene transcription; necrotic tissue in kidney [12]: less necrotic tissue; number of inflammatory ED1-cells in renal tissue ([12]; P<0.01): significantly reduced number of ED1-cells; change in body weight before and after the ARF (percent of original body weight) [13]: no significant change; also recorded: not significantly different from 100%; ESRE-mediated transcription (luciferase chemiluminescence) [14]: strongly induce ESRE-mediated transcription; anti-VCAM-1 antibody binding (TNF-α mediated VCAM-1 expression) [15]: in the absence of A-NOD or NOD showed strong anti-VCAM-1 antibody binding in comparison to the cells co-treated with A-NOD or NOD
CCCCCCCC(=O)NCCc1ccc(OC(C)=O)c(OC(C)=O)c1 [A-NOD, N-(3,4-bisacetoxyphenylethyl)octanamide]	–	–	–	–	significantly lower	anti-HO1 antibody binding [8]: showed anti-HO1 antibody binding; ESRE-mediated transcription (luciferase chemiluminescence) [14]: did not significantly induce transcription; anti-VCAM-1 antibody binding (TNF-α mediated VCAM-1 expression) [15]: in the absence of A-NOD or NOD showed strong anti-VCAM-1 antibody binding in comparison to the cells co-treated with A-NOD or NOD
CC(=O)Oc1ccc(OC(C)=O)c(C(=O)O)c1 [BB]	1.03	0.90	1.01	0.60	–	–
CC(C)(C)C(=O)NCCc1ccc(O)c(O)c1 [NPD, N-[2-(3,4-dihydroxyphenyl)ethyl]tert-butylamide]	–	–	–	–	significantly lower	–
CCCCCCCCNC(=O)c1cc(OC(C)=O)ccc1OC(C)=O [BBNO]	0.96	4.72	3.74	1.08	–	–
NCCc1ccc(O)c(O)c1 [dopamine, 4-(2-aminoethyl)benzene-1,2-diol]	–	–	–	–	–	body weight lost due to the ARF ([13]; osmotic minipump): ~11%
CCCCNC(=O)c1cc(OC(C)=O)ccc1OC(C)=O [BBNB]	0.99	0.84	0.90	0.65	–	–
